Here are results for 19 compounds from patent publication US12447153B2, “HER2 mutation inhibitors” (Array BioPharma Inc., priority 2021, dated 2025).

In data set [1] the target is ErbB2 WT (Homo sapiens (Human), UniProt P04626). Put plainly: ErbB Enzyme Assay (HTRF KinEASE-TK), Assay 2. Type of data set: biochemical. For orientation: In TR-FRET formats the signal depends on donor and acceptor labels being close together.
The target of data set [2] is MDR1 (P-gp) (Homo sapiens (Human), UniProt P08183). Put plainly: in vitro. The settings on record: pig, LLC-PK1.
Method: Both LLC-PK1 and MDR1 transfected LLC-PK1 cells were cultured and plated according to manufacturer's recommendations with the exception that the passage media contained only 2% fetal bovine serum so as to extend passage time out to seven days.
Both positive and negative controls were used to assess functionality of P-gp or BCRP efflux in the assays. Stock solutions for assay controls and the test article were prepared in DMSO for final test concentrations of 10 μM and 1 μM, respectively. Final organic concentration in the assay was 1%. All dosing solutions contained 10 μM lucifer yellow to monitor LLC PK1 or MDCKII cell monolayer integrity.
For the apical to basolateral determination (A to B), 75 μL of the test article in transport buffer were added to the apical side of the individual transwells and 250 μL of basolateral media, without compound or lucifer yellow, were added to each well. For the basolateral to apical determination (B to A), 250 μL of test article in transport buffer were added to each well and 75 μL transport buffer, without compound or lucifer yellow, were added to each transwell. All tests were performed in triplicate, and each compound was tested for both apical to basolateral and basolateral to apical transport. The plates were incubated for 2 hours on a Lab-Line Instruments Titer Orbital Shaker (VWR, West Chester, PA) at 50 rpm and 37° C. with 5% CO2. All culture plates were removed from the incubator, 50 μL of media were removed from the apical and basolateral portion of each well, and added to 150 μL of 1 μM labetalol in 2:1 acetonitrile (ACN): H2O, v/v.
The plates were read using a Molecular Devices (Sunnyvale, CA) Gemini Fluorometer to evaluate the lucifer yellow concentrations at excitation/emission wavelengths of 425/535 nm. These values were accepted when found to be below 2% for apical to basolateral and 5% basolateral to apical flux across the MDR1-transfected LLC-PK1 or BCRP-transfected MDCKII cell monolayers. The plates were sealed, and the contents of each well analyzed by LC MS/MS. The compound concentrations were determined from the ratio of the peak areas of the compound to the internal standard (labetalol) in comparison to the dosing solution.
The LC-MS/MS system was comprised of an HTS-PAL autosampler (Leap Technologies, Carrboro, NC), an HP1200 HPLC (Agilent, Palo Alto, CA), and a MDS Sciex 4000 Q Trap system (Applied Biosystems, Foster City, CA). […] The total run time, including re-equilibration, for a single injection was 1.2 minutes. Mass spectrometric detection of the analytes was accomplished using the ion spray positive mode. Analyte responses were measured by multiple reaction monitoring (MRM) of transitions unique to each compound (the protonated precursor ion and selected product ions for each test article and m/z 329 to m/z 162 for labetalol, the internal standard).
An efflux ratio is calculated from the mean apical to basolateral (A-B) Papp data and basolateral to apical (B-A) Papp data: Efflux ratio=Papp(B−A)/Papp(A−B)
The target in data set [3] is ErbB2 with Exon 20 YVMA insertion (HER2-YVMA) (Homo sapiens (Human), UniProt P04626, INS775YVMA). Put plainly: Cellular Phosphorylation Assay, Assay 4 (constitutive ErbB2 phosphorylation, NIH 3T3 cells). Type of data set: cell-based.
Data set [4] has as its target BCRP (Homo sapiens (Human), UniProt Q9UNQ0). Put plainly: BCRP MDCKII efflux assay (Assay 7). The class given is in vitro ADME. The settings on record: dog; efflux ratio Papp(B-A)/Papp(A-B), BCRP MDCKII cells; read-out: Assay 7 Pe Ratio. The method, then:
Assay conditions included with and without the BCRP-specific inhibitor, KO143, at a concentration of 0.3 μM to ascertain the contribution of BCRP to the efflux value of the test compound.
Final organic concentration in the assay was 1%.

Data set [5] has as its target EGFR wild type (EGFR WT) (Homo sapiens (Human), UniProt P00533). Put plainly: Cellular Phosphorylation Assay, Assay 5 (EGF-stimulated EGFR phosphorylation, NIH 3T3 cells). The class given is cell-based.
The target in data set [6] is EGFR (Homo sapiens (Human), UniProt P00533). Description: ErbB Enzyme Assay (HTRF KinEASE-TK), Assay 3. Type of data set: biochemical.
Setting [7] is: EGF-stimulated EGFR WT phosphorylation.
Setting [8] is: cellular ErbB2 YVMA phosphorylation.
Where [9] appears, read: cellular EGFR WT phosphorylation, EGF-stimulated.

Bounds are passed on as bounds.

ErbB2 WT, sequence (P04626 23-1255): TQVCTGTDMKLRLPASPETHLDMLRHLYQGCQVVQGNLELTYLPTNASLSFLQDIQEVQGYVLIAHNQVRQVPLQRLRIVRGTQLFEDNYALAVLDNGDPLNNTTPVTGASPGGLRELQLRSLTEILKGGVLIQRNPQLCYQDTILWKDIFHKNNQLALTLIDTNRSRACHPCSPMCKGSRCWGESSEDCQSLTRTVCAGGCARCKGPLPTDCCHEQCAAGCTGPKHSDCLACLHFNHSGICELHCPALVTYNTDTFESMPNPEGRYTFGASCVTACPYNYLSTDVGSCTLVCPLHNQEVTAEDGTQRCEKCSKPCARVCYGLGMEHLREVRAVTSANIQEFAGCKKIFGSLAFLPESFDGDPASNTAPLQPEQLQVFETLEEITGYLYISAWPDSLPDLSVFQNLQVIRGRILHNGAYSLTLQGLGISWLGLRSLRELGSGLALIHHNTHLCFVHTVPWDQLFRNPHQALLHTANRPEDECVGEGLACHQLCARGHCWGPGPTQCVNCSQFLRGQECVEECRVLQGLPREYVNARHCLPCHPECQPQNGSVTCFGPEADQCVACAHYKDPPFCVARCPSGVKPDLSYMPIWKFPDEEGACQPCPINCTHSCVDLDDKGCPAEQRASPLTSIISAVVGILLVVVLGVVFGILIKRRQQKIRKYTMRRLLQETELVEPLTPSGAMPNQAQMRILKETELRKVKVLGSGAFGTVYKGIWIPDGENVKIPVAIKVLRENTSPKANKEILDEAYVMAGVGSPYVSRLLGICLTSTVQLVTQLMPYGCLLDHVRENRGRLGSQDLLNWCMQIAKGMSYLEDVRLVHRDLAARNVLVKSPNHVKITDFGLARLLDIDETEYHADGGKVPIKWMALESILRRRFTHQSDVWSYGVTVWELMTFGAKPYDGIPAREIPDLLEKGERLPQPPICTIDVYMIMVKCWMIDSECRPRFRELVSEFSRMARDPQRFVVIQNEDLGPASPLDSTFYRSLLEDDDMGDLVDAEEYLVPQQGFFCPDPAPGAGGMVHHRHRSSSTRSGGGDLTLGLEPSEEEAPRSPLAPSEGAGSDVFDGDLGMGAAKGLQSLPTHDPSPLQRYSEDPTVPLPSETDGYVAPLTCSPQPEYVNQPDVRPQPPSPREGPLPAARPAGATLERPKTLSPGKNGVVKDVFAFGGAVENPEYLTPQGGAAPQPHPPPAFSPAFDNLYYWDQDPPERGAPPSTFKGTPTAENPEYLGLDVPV
EGFR wild type (EGFR WT), sequence (P00533 25-1210): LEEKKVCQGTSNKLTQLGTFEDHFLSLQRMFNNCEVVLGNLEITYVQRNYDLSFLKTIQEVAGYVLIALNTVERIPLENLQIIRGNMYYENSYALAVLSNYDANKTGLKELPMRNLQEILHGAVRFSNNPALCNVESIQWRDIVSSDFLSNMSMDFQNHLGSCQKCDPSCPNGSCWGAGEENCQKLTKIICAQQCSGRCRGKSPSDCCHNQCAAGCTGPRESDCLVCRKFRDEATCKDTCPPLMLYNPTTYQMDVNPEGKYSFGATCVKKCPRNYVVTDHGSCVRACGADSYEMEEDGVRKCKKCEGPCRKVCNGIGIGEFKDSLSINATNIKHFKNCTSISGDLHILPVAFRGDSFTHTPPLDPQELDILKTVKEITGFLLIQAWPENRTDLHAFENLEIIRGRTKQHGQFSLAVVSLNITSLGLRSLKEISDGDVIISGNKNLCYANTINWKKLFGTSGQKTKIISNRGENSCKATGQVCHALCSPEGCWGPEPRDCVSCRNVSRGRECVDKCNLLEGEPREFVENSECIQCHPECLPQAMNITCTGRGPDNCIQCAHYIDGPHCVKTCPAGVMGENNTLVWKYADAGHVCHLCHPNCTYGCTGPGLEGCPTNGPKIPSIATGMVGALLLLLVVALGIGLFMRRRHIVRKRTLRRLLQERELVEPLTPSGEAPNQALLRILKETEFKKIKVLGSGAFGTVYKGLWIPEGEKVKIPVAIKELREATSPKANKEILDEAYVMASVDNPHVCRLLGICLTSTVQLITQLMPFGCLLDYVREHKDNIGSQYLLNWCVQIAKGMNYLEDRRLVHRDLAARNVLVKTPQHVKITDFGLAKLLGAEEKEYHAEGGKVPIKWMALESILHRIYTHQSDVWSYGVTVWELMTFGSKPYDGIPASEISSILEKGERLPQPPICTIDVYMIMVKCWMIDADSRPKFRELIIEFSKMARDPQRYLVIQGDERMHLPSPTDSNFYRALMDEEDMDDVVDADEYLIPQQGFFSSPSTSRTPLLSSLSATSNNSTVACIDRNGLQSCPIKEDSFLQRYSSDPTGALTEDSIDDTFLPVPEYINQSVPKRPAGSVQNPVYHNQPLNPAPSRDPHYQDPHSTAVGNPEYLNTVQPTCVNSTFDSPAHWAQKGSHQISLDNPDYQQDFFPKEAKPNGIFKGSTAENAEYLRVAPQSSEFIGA
EGFR, sequence (P00533 25-1210): as above
ErbB2 with Exon 20 YVMA insertion (HER2-YVMA), sequence (P04626 other isoform, or with tags, fused parts or gaps ins YVMA behind 775): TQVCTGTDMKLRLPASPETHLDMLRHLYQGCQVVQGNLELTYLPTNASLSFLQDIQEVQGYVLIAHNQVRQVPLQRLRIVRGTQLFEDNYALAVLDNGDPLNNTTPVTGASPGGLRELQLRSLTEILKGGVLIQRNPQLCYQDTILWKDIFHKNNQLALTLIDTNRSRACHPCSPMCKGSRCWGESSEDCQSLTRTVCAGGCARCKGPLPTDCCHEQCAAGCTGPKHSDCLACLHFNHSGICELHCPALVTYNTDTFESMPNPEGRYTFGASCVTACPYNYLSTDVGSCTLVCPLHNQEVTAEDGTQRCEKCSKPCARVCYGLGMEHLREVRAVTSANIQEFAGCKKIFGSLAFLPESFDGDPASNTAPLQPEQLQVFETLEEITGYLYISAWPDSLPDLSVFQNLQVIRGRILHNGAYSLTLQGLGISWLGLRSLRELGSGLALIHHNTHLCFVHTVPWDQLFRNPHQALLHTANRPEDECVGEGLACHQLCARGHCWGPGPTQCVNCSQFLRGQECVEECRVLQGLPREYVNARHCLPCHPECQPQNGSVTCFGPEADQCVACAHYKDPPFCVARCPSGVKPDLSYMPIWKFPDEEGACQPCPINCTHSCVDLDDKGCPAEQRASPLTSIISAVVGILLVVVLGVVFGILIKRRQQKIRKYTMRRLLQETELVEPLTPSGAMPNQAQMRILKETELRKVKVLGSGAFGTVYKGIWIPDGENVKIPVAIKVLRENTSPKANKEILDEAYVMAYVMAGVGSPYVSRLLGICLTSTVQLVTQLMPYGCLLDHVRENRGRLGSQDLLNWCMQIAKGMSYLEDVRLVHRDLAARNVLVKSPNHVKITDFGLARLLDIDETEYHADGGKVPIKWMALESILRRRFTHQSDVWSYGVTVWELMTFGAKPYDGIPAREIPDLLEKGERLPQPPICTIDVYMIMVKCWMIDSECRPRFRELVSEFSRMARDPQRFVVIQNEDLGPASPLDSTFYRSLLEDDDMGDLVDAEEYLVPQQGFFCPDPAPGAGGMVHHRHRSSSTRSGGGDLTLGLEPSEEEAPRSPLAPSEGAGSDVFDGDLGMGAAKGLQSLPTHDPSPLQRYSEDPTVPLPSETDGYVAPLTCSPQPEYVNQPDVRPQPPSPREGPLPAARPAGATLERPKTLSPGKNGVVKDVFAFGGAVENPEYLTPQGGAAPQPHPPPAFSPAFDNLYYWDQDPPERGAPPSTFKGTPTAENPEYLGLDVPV

Consider `C=CC(=O)N1C[C@H](c2ccc3ncnc(Nc4ccc(Oc5ccc6c(c5)ncn6C)c(C)c4F)c3n2)C[C@H]1C` [Example 193, 1-((2R,4R)-4-(4-((2-fluoro-3-methyl-4-((1-methyl-1H-benzo[d]imidazol-5-yl)oxy)phenyl)amino)pyrido[3,2-d]pyrimidin-6-yl)-2-methylpyrrolidin-1-yl)prop-2-en-1-one], for which the half-maximal inhibitory concentration (IC50) (usually the concentration needed to halve the response being measured) was 0.0618 µM in data set [1] (ErbB2 WT enzyme), 0.016 µM in data set [3] (ErbB2 YVMA phosphorylation), not below 5 µM in data set [5] (setting [7]) and not below 10 µM in data set [6] (EGFR enzyme). Besides, the efflux ratio at 2 h, 1 µM in data set [2] turned out to be 0.7; in data set [4], 3.4.

On to `C=CC(=O)N1[C@@H]2CC[C@H]1C[C@@H](c1ccc3ncnc(Nc4ccc(Oc5ccn6ncnc6c5)c(Cl)c4F)c3n1)C2` [Example 214, 1-((1R,3r,5S)-3-(4-((4-([1,2,4]triazolo[1,5-a]pyridin-7-yloxy)-3-chloro-2-fluorophenyl)amino)pyrido[3,2-d]pyrimidin-6-yl)-8-azabicyclo[3.2.1]octan-8-yl)prop-2-en-1-one], for which the half-inhibitory concentration (IC50) in data set [1] (ErbB2 WT enzyme) is 0.0216 µM; in data set [3] (ErbB2 YVMA phosphorylation), 0.025 µM; in data set [5] (setting [7]), not below 5 µM; in data set [6] (EGFR enzyme), 0.279 µM. Moreover, the efflux ratio at 2 h, 1 µM in data set [2] is 1.4; in data set [4] it was 3.8.

As to `C=CC(=O)N1C[C@H]2CC[C@@H](C1)[C@@H]2c1ccc2ncnc(Nc3cc(C)c(Oc4ccn5ncnc5c4)cc3F)c2n1` [Example 222, 1-((1R,5S,8r)-8-(4-((4-([1,2,4]triazolo[1,5-a]pyridin-7-yloxy)-2-fluoro-5-methylphenyl)amino)pyrido[3,2-d]pyrimidin-6-yl)-3-azabicyclo[3.2.1]octan-3-yl)prop-2-en-1-one], the IC50 is 0.133 µM in data set [1] (ErbB2 WT enzyme), 0.309 µM in data set [3] (ErbB2 YVMA phosphorylation), not below 5 µM in data set [5] (setting [7]) and 5.83 µM in data set [6] (EGFR enzyme). Also, the results for the efflux ratio at 2 h, 1 µM in data set [2] and in data set [4] were 1.3 and 1.4, respectively.

Turning to `C=CC(=O)N1C[C@H]2C[C@H](c3ccc4ncnc(Nc5ccc(Oc6ccn7ncnc7c6)c(Cl)c5F)c4n3)[C@@H]1C2` [Example 230, 1-((1 S,4S,6S)-6-(4-((4-([1,2,4]triazolo[1,5-a]pyridin-7-yloxy)-3-chloro-2-fluorophenyl)amino)pyrido[3,2-d]pyrimidin-6-yl)-2-azabicyclo[2.2.1]heptan-2-yl)prop-2-en-1-one], the concentration for half-maximal inhibition (IC50) in data set [1] (ErbB2 WT enzyme) stood at 0.0136 µM; in data set [3] (ErbB2 YVMA phosphorylation), 0.0214 µM; in data set [5] (setting [7]), 0.996 µM; in data set [6] (EGFR enzyme), 0.312 µM. The efflux ratio at 2 h, 1 µM worked out at 0.8 in data set [2] and 2.7 in data set [4].

Turning to `C=CC(=O)N1CCN(c2ccc3ncnc(Nc4ccc(Oc5cnc6c(c5)ncn6C)c(Cl)c4F)c3n2)CC1(C)C` [Example 239, 1-(4-(4-((3-chloro-2-fluoro-4-((3-methyl-3H-imidazo[4,5-b]pyridin-6-yl)oxy)phenyl)amino)pyrido[3,2-d]pyrimidin-6-yl)-2,2-dimethylpiperazin-1-yl)prop-2-en-1-one], the 50% inhibitory concentration (IC50) in data set [1] (ErbB2 WT enzyme) was determined as 0.0367 µM; in data set [3] (ErbB2 YVMA phosphorylation), 0.0243 µM; in data set [5] (setting [7]), 2.25 µM; in data set [6] (EGFR enzyme), 0.955 µM. Moreover, the efflux ratio at 2 h, 1 µM was 1.8 in data set [2] and 5.2 in data set [4].

As to `Cc1c(Oc2ccn3ncnc3c2)ccc(Nc2ncnc3ccc(N4CCN(C#N)C(C)(C)C4)nc23)c1F` [Example 245, 4-(4-((4-([1,2,4]triazolo[1,5-a]pyridin-7-yloxy)-2-fluoro-3-methylphenyl)amino)pyrido[3,2-d]pyrimidin-6-yl)-2,2-dimethylpiperazine-1-carbonitrile], the IC50 is 0.0831 µM in data set [1] (ErbB2 WT enzyme), 0.177 µM in data set [3] (ErbB2 YVMA phosphorylation), not below 5 µM in data set [5] (setting [7]) and not below 10 µM in data set [6] (EGFR enzyme). The efflux ratio at 2 h, 1 µM in data set [2] is 1.2; in data set [4], 4.2.

`CC#CC(=O)N1CC2CCC(C1)N2c1ccc2ncnc(Nc3ccc(Oc4ccn5ncnc5c4)c(C)c3F)c2n1` [Example 246, 1-(8-(4-((4-([1,2,4]triazolo[1,5-a]pyridin-7-yloxy)-2-fluoro-3-methylphenyl)amino)pyrido[3,2-d]pyrimidin-6-yl)-3,8-diazabicyclo[3.2.1]octan-3-yl)but-2-yn-1-one]: the IC50 came to 0.0348 µM in data set [1] (ErbB2 WT enzyme), 0.0162 µM in data set [3] (ErbB2 YVMA phosphorylation), 1.3 µM in data set [5] (setting [7]) and 1.8 µM in data set [6] (EGFR enzyme). For the same compound, the efflux ratio at 2 h, 1 µM was determined as 0.5 in data set [2] and 1.3 in data set [4].

On to `C=CC(=O)N1CCN(c2ccc3ncnc(Nc4ccc(Oc5cnc6c(c5)ncn6C)c(C)c4F)c3n2)CC1(C)C` [Example 247, 1-(4-(4-((2-fluoro-3-methyl-4-((3-methyl-3H-imidazo[4,5-b]pyridin-6-yl)oxy)phenyl)amino)pyrido[3,2-d]pyrimidin-6-yl)-2,2-dimethylpiperazin-1-yl)prop-2-en-1-one], for which the 50% inhibitory concentration (IC50) in data set [1] (ErbB2 WT enzyme) is 0.0715 µM; in data set [3] (ErbB2 YVMA phosphorylation) it was 0.0089 µM; in data set [5] (setting [7]), not below 5 µM; in data set [6] (EGFR enzyme), not below 10 µM. Further, the efflux ratio at 2 h, 1 µM was found to be 0.8 in data set [2] and 1.9 in data set [4].

Take `C=CC(=O)N1CCN(c2ccc3ncnc(Nc4ccc(Oc5cnc6c(c5)ncn6C)c(Cl)c4)c3n2)CC1(C)C` [Example 249]: the IC50 in data set [1] (ErbB2 WT enzyme) was found to be 0.0118 µM; in data set [3] (ErbB2 YVMA phosphorylation) it was 0.0087 µM; in data set [5] (setting [7]), 2.05 µM; in data set [6] (EGFR enzyme) it was 1.33 µM. In addition, the values for the efflux ratio at 2 h, 1 µM in data set [2] and in data set [4] were 1.4 and 5.9, respectively.

On to `C=CC(=O)N1C[C@@H]2C[C@H]1CN(c1ccc3ncnc(Nc4ccc(Oc5ccn6ncnc6c5)c(C)c4F)c3n1)C2` [Example 251], for which the IC50 was 0.494 µM in data set [1] (ErbB2 WT enzyme assay), 0.0273 µM in data set [3] (setting [8]), not below 5 µM in data set [5] (setting [9]) and not below 10 µM in data set [6] (EGFR enzyme assay). Also, the efflux ratio at 2 h, 1 µM stood at 1.5 in data set [2] and 4.8 in data set [4].

For the compound `C=CC(=O)N1CCN(c2ccc3ncnc(Nc4cc(C)c(Oc5ccc6c(c5)ncn6C)cc4F)c3n2)C[C@@H]1C1CC1` [Example 252], the IC50 in data set [1] (ErbB2 WT enzyme assay) is 0.171 µM; in data set [3] (setting [8]), 0.0211 µM; in data set [5] (setting [9]) it was not below 5 µM; in data set [6] (EGFR enzyme assay) it was 4.58 µM. Also, the efflux ratio at 2 h, 1 µM is 1 in data set [2] and 2.9 in data set [4].

Turning to `C=CC(=O)N1CCN(c2ccc3ncnc(Nc4cc(C)c(Oc5ccc6c(c5)ncn6C)cc4F)c3n2)C[C@H]1C(C)C` [Example 254], the IC50 in data set [1] (ErbB2 WT enzyme assay) is 0.0926 µM; in data set [3] (setting [8]) it was 0.0232 µM; in data set [5] (setting [9]), not below 5 µM; in data set [6] (EGFR enzyme assay), 5.34 µM. Also, the efflux ratio at 2 h, 1 µM in data set [2] was 1.3; in data set [4] it was 2.4.

On to `C=CC(=O)N1CCCN(c2ccc3ncnc(Nc4ccc(Oc5ccn6ncnc6c5)c(Cl)c4F)c3n2)CC1(C)C` [Example 261], for which the concentration for half-maximal inhibition (IC50) in data set [1] (ErbB2 WT enzyme assay) was 0.0134 µM; in data set [3] (setting [8]), 0.0279 µM; in data set [5] (setting [9]), 0.716 µM; in data set [6] (EGFR enzyme assay), not below 10 µM. Further, the values for the efflux ratio at 2 h, 1 µM in data set [2] and in data set [4] were 1.3 and 3.6, respectively.

`C=CC(=O)N1CCN(c2ccc3ncnc(Nc4ccc(Oc5ccc6c(c5)ncn6C)c(Cl)c4F)c3n2)CC1(C)C` [Example 262]: the half-inhibitory concentration (IC50) in data set [1] (ErbB2 WT enzyme assay) is 0.0189 µM; in data set [3] (setting [8]), 0.0324 µM; in data set [5] (setting [9]) it was not below 5 µM; in data set [6] (EGFR enzyme assay), not below 10 µM. Besides, the values for the efflux ratio at 2 h, 1 µM in data set [2] and in data set [4] were 1.7 and 4.6, respectively.

In the case of `C=CC(=O)N1[C@H](C)CN(c2ccc3ncnc(Nc4cc(Cl)c(Oc5ccn6ncnc6c5)cc4F)c3n2)C[C@@H]1C` [Example 265], the IC50 in data set [1] (ErbB2 WT enzyme assay) is 0.0172 µM; in data set [3] (setting [8]), 0.0339 µM; in data set [5] (setting [9]), 4.04 µM; in data set [6] (EGFR enzyme assay) it was 7.76 µM. Also, the efflux ratio at 2 h, 1 µM in data set [2] was determined as 1.2; in data set [4] it was 3.4.

Turning to `C=CC(=O)N1CCC(c2ccc3ncnc(Nc4ccc(Oc5ccn6ncnc6c5)c(C)c4F)c3n2)CC12CC2` (stereo not drawn) [Example 270], the IC50 in data set [1] (ErbB2 WT enzyme assay) was 0.021 µM; in data set [3] (setting [8]), 0.0201 µM; in data set [5] (setting [9]), 0.494 µM; in data set [6] (EGFR enzyme assay) it was 0.942 µM. Moreover, the efflux ratio at 2 h, 1 µM stood at 1.6 in data set [2] and 1.1 in data set [4].

With `C=CC(=O)N1CCN(c2ccc3ncnc(Nc4cc(Cl)c(Oc5ccn6ncnc6c5)cc4F)c3n2)C[C@@H]1C1CC1` [Example 286], the IC50 in data set [1] (ErbB2 WT enzyme assay) is 0.0148 µM; in data set [3] (setting [8]), 0.0165 µM; in data set [5] (setting [9]), not below 5 µM; in data set [6] (EGFR enzyme assay), not below 10 µM. For the same compound, the efflux ratio at 2 h, 1 µM in data set [2] worked out at 1; in data set [4], 2.

As to `C=CC(=O)N1CCN(c2ccc3ncnc(Nc4ccc(Oc5ccn6ncnc6c5)c(Cl)c4F)c3n2)C[C@@H]1C1CC1` [Example 287], the IC50 is 0.0124 µM in data set [1] (ErbB2 WT enzyme assay), 0.0098 µM in data set [3] (setting [8]), 1.96 µM in data set [5] (setting [9]) and 1.1 µM in data set [6] (EGFR enzyme assay). Moreover, the results for the efflux ratio at 2 h, 1 µM in data set [2] and in data set [4] were 1 and 1.7, respectively.

For the compound `C=CC(=O)N1CCN(c2ccc3ncnc(Nc4cc(C)c(Oc5ccn6ncnc6c5)cc4F)c3n2)C[C@@H]1CC` [Example 290], the IC50 was 0.0536 µM in data set [1] (ErbB2 WT enzyme assay), 0.0385 µM in data set [3] (setting [8]), not below 5 µM in data set [5] (setting [9]) and 8.71 µM in data set [6] (EGFR enzyme assay). In addition, the results for the efflux ratio at 2 h, 1 µM in data set [2] and in data set [4] were 1.5 and 4.8, respectively.
